According to patent US20210369583A1, “COMPOSITIONS FOR PROVIDING SKIN CARE BENEFITS AND METHODS OF USE” (Danisco US Inc., priority 2018, published 2021):
Values joined by “and” are separate entries in the source; they are usually repeats but may differ in a detail not shown here. Identical values can stand only once.

Assays:
Assay type in all cases: cell-based
[1] = system: Normal Human Epidermal Keratinocytes (NHEK); experiment: Osmoprotective effect on keratinocytes under hyper-osmotic conditions (NaCl 150 mM), flow cytometry
Procedure: (§1) The type of cells use for this study were Normal Human Epidermal Keratinocytes (NHEK), Bioalternatives reference K341 used at the 3rd passage. The culture conditions were: 37° C., 5% CO2. The culture medium is referred to as “keratinocyte-SFM” supplemented with Epidermal Growth Factor (EGF) 0.25 ng/ml, Pituitary extract (PE) 25 μg/ml, Gentamycin 25 μg/ml. The assay medium was “keratinocyte-SFM” supplemented with gentamycin 25 μg/ml.
(§2) Keratinocytes (NHEK) were seeded in 24-well plates and cultured for 24 hours in culture medium. The medium was then replaced by assay medium containing or not (control) the single osmolyte or the combination of osmolytes C1 or C2 and cells were pre-incubated for 24 hours.
For hyper-osmotic conditions, the medium was removed and replaced by assay medium containing NaCl at 150 mM and containing the single osmolyte or the combination of osmolytes (C1 or C2). The cells were then incubated for 48 hours. In parallel, a normo-osmotic control (no osmotic stress control) was performed.
(§3) At the end of incubation, culture medium was removed and the cells were rinsed with a PBS solution. The cells were then detached using trypsin treatment and transferred into tubes. After several washes in PBS/BSA 0.2%, the cells were labeled with a propidium iodide (PI) solution (staining of dead cells).
(§4) Cell populations were then analyzed for number (total number of event per well during a fixed time), size (FSC), granularity (SSC) and viability parameters (% PI-positive cells, equivalent to % dead cells) by flow cytometry using BD FACSVerse™ flow cytometer. • Acquisition 1 represents the number of events (=number of cells) passing one by one in front of the cytometer laser over a fixed time. It doesn't distinct dead or living cells at this step. By subtracting the number of events (in hyperosmotic or irradiated condition) from the total number of events in normoosmotic conditions, it is possible to calculate the number of cells that have been lysed due to the stress conditions. • Acquisition 2, represents, on a fixed number of events, 1) the detection of the light scattered when the cells are crossing the laser, FSC-A, from which can be calculated the cell size, 2) the detection of the cells stained by Propidium Iodide (dead cells) from which can be calculated the % of viable cells.

[2] = system: Reconstructed Human Epidermis (RHE); experiment: Caffein diffusion test on Reconstituted Human Epidermis (RHE); details: for caffein diffusion through RHE: systemic treatment
Procedure: By measuring the amount of […] […] The epidermis used was a Reconstructed Human Epidermis, called “RHE”, 0-day-old, batch no 01015-444, placed in culture conditions 37° C., 5% CO2. The assay medium was the Bioalternatives maintenance medium. RHE at Day 0 (when placed at the air/liquid interface) were placed in assay medium containing or not (control) the compounds, the combination or the reference (vitamin C at 200 μg/ml). This is referred to as a systemic application, to be differentiated from a topical application. RHE were then incubated for 7 days with treatment renewal at Day 3 and Day 5. All experimental conditions were performed in n=3. At the end of incubation (Day 7), radioactive […] ([^14[…] applied on the surface of each epidermis. The radioactivity contained in subnatants was measured by liquid scintillation after 30 minutes, 1, 2, 3, 4, 5, 6, 7 and 8 hours of incubation. The barrier function is calculated according to the below formula:

[3] = system: Normal Human Epidermal Keratinocytes (NHEK); experiment: Protection of keratinocytes under UV-irradiated conditions (UVB 250 mJ/cm2), flow cytometry
Procedure: as §1, §2
For UV-irradiated conditions, the medium was then removed and replaced by assay medium and the cells were irradiated with UVB at 250 mJ/cm2 (+UVA at 1.6 J/cm2). The lamp used was a SOL500 Sun simulator equipped with an H2 filter (Dr. Hole, AG). A non-irradiated control condition was performed in parallel. After irradiation, the medium was removed and replaced by assay medium containing or not (control) the single osmolyte or the combination of osmolytes (C1 or C2) and the cells were incubated for 48 hours.
as §3, §4

[4] = system: Normal Human Epidermal Keratinocytes (NHEK); experiment: Protection of keratinocytes under UV-irradiated and hyper-osmotic conditions, flow cytometry; details: NaCl 150 mM + UVB 250 mj/cm^2
Procedure: as §1, §2
For UV-irradiated and hyper-osmotic conditions, the medium was then removed and replaced by assay medium and the cells were irradiated with UVB at 250 mJ/cm2 (+UVA at 1.6 J/cm2). The lamp used was a SOL500 Sun simulator equipped with an H2 filter (Dr. Höle, AG). After irradiation, the medium was removed and replaced by assay medium containing NaCl at 150 mM (hyperosmotic conditions) and containing the single osmolyte or the combination of osmolytes (C1 or C2) and the cells were then incubated for 48 hours. In parallel, a non-irradiated and normo-osmotic control was performed.
as §3, §4

For O=C(O)[C@@H]1CCCN1 [L-Proline], the “% cell size difference compared to control hyperosmotic stress condition under 150 mM NaCl” value ([1]; 3 mg/ml total osmolytes) was “+4%”, the “% cell size difference compared to control hyperosmotic stress condition under 150 mM NaCl” value ([1]; 10 mg/ml total osmolytes) was “+13%” and the viability at 3000 µg/mL ([1]; Homo sapiens, NHEK, NaCl 150 mM 48 h, 3 mg/ml, read-out: Cell viability, % hyperosmotic control) was 143%. For the same compound, the “Lysed cells, % normo-osmotic control (% cell lysis)” value ([1]; NaCl 150 mM 48 h, 3 mg/ml) was 67.2%, the “Lysed cells: Mean number of event per well normo-osmotic control − Mean number of event per well hyperosmotic conditions” value ([1]; NaCl 150 mM 48 h, 3 mg/ml) was 73197 and the “Mean % viable cells = 100-% PI-positive cells = 100-% dead cells” value ([1]; NaCl 150 mM 48 h, 3 mg/ml) was 69.6%. The “Mean cell size FSC-A (au)” value ([1]; NaCl 150 mM 48 h, 3 mg/ml) was 68417 au, the “Total number of events per well, % hyperosmotic control” value ([1]; NaCl 150 mM 48 h, 3 mg/ml) was 130% and the “Total number of events per well, Mean (au)” value ([1]; NaCl 150 mM 48 h, 3 mg/ml) was 18676 au. The “Cell size, % hyperosmotic control” value ([1]; NaCl 150 mM 48 h, 10 mg/ml) was 113%, the “Lysed cells, % normo-osmotic control (% cell lysis)” value ([1]; NaCl 150 mM 48 h, 10 mg/ml) was 41.7% and 67.2% and the “Lysed cells: Mean number of event per well normo-osmotic control − Mean number of event per well hyperosmotic conditions” value ([1]; NaCl 150 mM 48 h, 10 mg/ml) was 56995. The “Mean cell size FSC-A (au)” value ([1]; NaCl 150 mM 48 h, 10 mg/ml) was 74581 au, the “Total number of events per well, % hyperosmotic control” value ([1]; NaCl 150 mM 48 h, 10 mg/ml) was 243% and the “Total number of events per well, Mean (au)” value ([1]; NaCl 150 mM 48 h, 10 mg/ml) was 34878 au. The “Barrier function % Control” value ([2]; 0.5 hrs, 3 mg/ml) was 96%, the “Mean [14C]-caffein (cpm)” value ([2]; 0.5 hrs, 3 mg/ml) was 20720 cpm and the “[14C]-caffein % Control” value ([2]; 0.5 hrs, 3 mg/ml) was 105%. For the same compound, the “Barrier function % Control” value ([2]; 0.5 hrs, 10 mg/ml) was 98%, the “Mean [14C]-caffein (cpm)” value ([2]; 0.5 hrs, 10 mg/ml) was 20193 cpm and the “[14C]-caffein % Control” value ([2]; 0.5 hrs, 10 mg/ml) was 103%. For the same compound, the “Barrier function % Control” value ([2]; 1 hrs, 3 mg/ml) was 97%, the “Mean [14C]-caffein (cpm)” value ([2]; 1 hrs, 3 mg/ml) was 47352 cpm and the “[14C]-caffein % Control” value ([2]; 1 hrs, 3 mg/ml) was 104%. The “Barrier function % Control” value ([2]; 1 hrs, 10 mg/ml) was 100%, the “Mean [14C]-caffein (cpm)” value ([2]; 1 hrs, 10 mg/ml) was 45495 cpm and the “[14C]-caffein % Control” value ([2]; 1 hrs, 10 mg/ml) was 100%. The “Barrier function % Control” value ([2]; 2 hrs, 3 mg/ml) was 94%, the “Mean [14C]-caffein (cpm)” value ([2]; 2 hrs, 3 mg/ml) was 106026 cpm and the “[14C]-caffein % Control” value ([2]; 2 hrs, 3 mg/ml) was 106%. For the same compound, the “Barrier function % Control” value ([2]; 2 hrs, 10 mg/ml) was 98%, the “Mean [14C]-caffein (cpm)” value ([2]; 2 hrs, 10 mg/ml) was 102027 cpm and the “[14C]-caffein % Control” value ([2]; 2 hrs, 10 mg/ml) was 102%. The “Barrier function % Control” value ([2]; 3 hrs, 3 mg/ml) was 93%, the “Mean [14C]-caffein (cpm)” value ([2]; 3 hrs, 3 mg/ml) was 147545 cpm and the “[14C]-caffein % Control” value ([2]; 3 hrs, 3 mg/ml) was 108%. For the same compound, the “Barrier function % Control” value ([2]; 3 hrs, 10 mg/ml) was 98%, the “Mean [14C]-caffein (cpm)” value ([2]; 3 hrs, 10 mg/ml) was 140203 cpm and the “[14C]-caffein % Control” value ([2]; 3 hrs, 10 mg/ml) was 102%. For the same compound, the “Barrier function % Control” value ([2]; 4 hrs, 3 mg/ml) was 93%, the “Mean [14C]-caffein (cpm)” value ([2]; 4 hrs, 3 mg/ml) was 169001 cpm and the “[14C]-caffein % Control” value ([2]; 4 hrs, 3 mg/ml) was 107%. The “Barrier function % Control” value ([2]; 4 hrs, 10 mg/ml) was 97%, the “Mean [14C]-caffein (cpm)” value ([2]; 4 hrs, 10 mg/ml) was 162571 cpm and the “[14C]-caffein % Control” value ([2]; 4 hrs, 10 mg/ml) was 103%. For the same compound, the “Barrier function % Control” value ([2]; 5 hrs, 3 mg/ml) was 93%, the “Mean [14C]-caffein (cpm)” value ([2]; 5 hrs, 3 mg/ml) was 184911 cpm and the “[14C]-caffein % Control” value ([2]; 5 hrs, 3 mg/ml) was 107%. The “Barrier function % Control” value ([2]; 5 hrs, 10 mg/ml) was 98%, the “Mean [14C]-caffein (cpm)” value ([2]; 5 hrs, 10 mg/ml) was 176461 cpm and the “[14C]-caffein % Control” value ([2]; 5 hrs, 10 mg/ml) was 102%. For the same compound, the “Barrier function % Control” value ([2]; 6 hrs, 3 mg/ml) was 94%, the “Mean [14C]-caffein (cpm)” value ([2]; 6 hrs, 3 mg/ml) was 190819 cpm and the “[14C]-caffein % Control” value ([2]; 6 hrs, 3 mg/ml) was 106%. The “Barrier function % Control” value ([2]; 6 hrs, 10 mg/ml) was 99%, the “Mean [14C]-caffein (cpm)” value ([2]; 6 hrs, 10 mg/ml) was 181674 cpm and the “[14C]-caffein % Control” value ([2]; 6 hrs, 10 mg/ml) was 101%. The “Barrier function % Control” value ([2]; 7 hrs, 3 mg/ml) was 94%, the “Mean [14C]-caffein (cpm)” value ([2]; 7 hrs, 3 mg/ml) was 199859 cpm and the “[14C]-caffein % Control” value ([2]; 7 hrs, 3 mg/ml) was 106%. For the same compound, the “Barrier function % Control” value ([2]; 7 hrs, 10 mg/ml) was 99%, the “Mean [14C]-caffein (cpm)” value ([2]; 7 hrs, 10 mg/ml) was 190843 cpm and the “[14C]-caffein % Control” value ([2]; 7 hrs, 10 mg/ml) was 101%. The “Barrier function % Control” value ([2]; 8 hrs, 3 mg/ml) was 100% and 99%, the “Barrier function (% L-Proline 3 mg/ml)” value ([2]; 8 hrs, 3 mg/ml) was 104% and the “Barrier function (% L-Proline 10 mg/ml)” value ([2]; 8 hrs, 3 mg/ml) was 100%. For the same compound, the “Mean [14C]-caffein (cpm)” value ([2]; 8 hrs, 3 mg/ml) was 193655 cpm and 194941 cpm, the “[14C]-caffein % Control” value ([2]; 8 hrs, 3 mg/ml) was 100% and 101% and the “Barrier function % Control” value ([2]; 8 hrs, 10 mg/ml) was 95%. The “Mean [14C]-caffein (cpm)” value ([2]; 8 hrs, 10 mg/ml) was 203011 cpm, the “[14C]-caffein % Control” value ([2]; 8 hrs, 10 mg/ml) was 105% and the “caffein diffusion through RHE” value ([2]; 3 mg/ml) was “did not decrease caffein diffusion”. For the same compound, the “caffein diffusion through RHE” value ([2]; 10 mg/ml) was “did not decrease caffein diffusion”, the viability at 3000 µg/mL ([3]; Homo sapiens, NHEK, light or radiation study, UVB 250 mj/cm^2, 3 mg/ml, read-out: Cell viability, % hyperosmotic control) was 103% and the “effect on cells submitted to UVB irradiation” value ([3]; UVB 250 mJ/cm^2 alone or in combination with hyperosmotic stress) was “no clear effect”. For the same compound, the “Cell size, % hyperosmotic control” value ([3]; UVB 250 mj/cm^2, 3 mg/ml) was 110%, the “Mean % viable cells = 100-% PI-positive cells = 100-% dead cells” value ([3]; UVB 250 mj/cm^2, 3 mg/ml) was 86.4% and the “Mean cell size FSC-A (au)” value ([3]; UVB 250 mj/cm^2, 3 mg/ml) was 100519 au. For the same compound, the “Cell size, % hyperosmotic control” value ([3]; UVB 250 mj/cm^2, 10 mg/ml) was 110%, the “Mean cell size FSC-A (au)” value ([3]; UVB 250 mj/cm^2, 10 mg/ml) was 101243 au and the “Cell size, % hyperosmotic control” value ([4]; 3 mg/ml) was 102%. The “Mean cell size FSC-A (au)” value ([4]; 3 mg/ml) was 69601 au, the “Cell size, % hyperosmotic control” value ([4]; 10 mg/ml) was 100% and the “Mean cell size FSC-A (au)” value ([4]; 10 mg/ml) was 68169 au.
